Test results: patent US10131652B2, “Pyrimidinyloxy benzene derivatives as herbicides” (E. I. DU PONT DE NEMOURS AND COMPANY, priority 2014, dated 2018)

Assays:
Type in all cases: in vivo
[1] = tested on: Italian ryegrass (Lolium multiflorum); test: Test B pre-/postemergence plant response
Source text: (§1) Seeds of plant species selected from bamyardgrass (Echinochloa crus-galli), kochia (Kochia scoparia), ragweed (common ragweed, Ambrosia elatior), Italian ryegrass (Lolium multiflorum), large (Lg) crabgrass (Digitaria sanguinalis), giant foxtail (Setaria faberii), momingglory (Ipomoea spp.), pigweed (Amaranthus retroflexus), velvetleaf (Abutilon theophrasti), wheat (Triticum aestivum), and corn (Zea mays) were planted into a blend of loam soil and sand and treated preemergence with a directed soil spray using test chemicals formulated in a non-phytotoxic solvent mixture which included a surfactant. At the same time, plants selected from these crop and weed species and also blackgrass (Alopecurus myosuroides), and galium (catchweed bedstraw, Galium aparine) were planted in pots containing the same blend of loam soil and sand and treated with postemergence applications of test chemicals formulated in the same manner. Plants ranged in height from 2 to 10 cm and were in the one- to two-leaf stage for the postemergence treatment. Treated plants and untreated controls were maintained in a greenhouse for approximately 10 days, after which time all treated plants were compared to untreated controls and visually evaluated for injury. Plant response ratings, summarized in Table B, are based on a 0 to 100 scale where 0 is no effect and 100 is complete control. A dash (-) response means no test result.

[2] = tested on: pigweed (Amaranthus retroflexus); test: Test B pre-/postemergence plant response
Source text: as §1

[3] = tested on: giant foxtail (Setaria faberii); test: Test B pre-/postemergence plant response
Source text: as §1

[4] = tested on: ragweed (common ragweed, Ambrosia elatior); test: Test B pre-/postemergence plant response
Source text: as §1

[5] = tested on: barnyardgrass (Echinochloa crus-galli); test: Test B pre-/postemergence plant response
Source text: as §1

kochia (Kochia scoparia) = test: Test B pre-/postemergence plant response
Source text: as §1

[6] = tested on: wheat (Triticum aestivum); test: Test B pre-/postemergence plant response; settings: 0 to 100 scale, 0 no effect, 100 complete control
Source text: as §1

corn (Zea mays) = test: Test B pre-/postemergence plant response; settings: 0 to 100 scale, 0 no effect, 100 complete control
Source text: as §1

[7] = tested on: galium (catchweed bedstraw, Galium aparine); test: Test B postemergence plant response; settings: 0 to 100 scale, 0 no effect, 100 complete control
Method in brief: (§2)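 Values are visual control ratings (0 to 100) recorded approximately 10 days after postemergence application to greenhouse-grown plants of 2 to 10 cm, one- to two-leaf stage, each judged against untreated controls.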

[8] = tested on: blackgrass (Alopecurus myosuroides); test: Test B postemergence plant response; settings: 0 to 100 scale, 0 no effect, 100 complete control
Method in brief: as §2

[9] = tested on: small-flower umbrella sedge (Cyperus difformis); test: Test C flooded paddy test plant response; settings: Flood, 250 g ai/ha; scale of 0 to 100 where 0 is no effect and 100 is complete control; 13 to 15 days
Method in brief: (§3)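 Scored visually on a 0–100 scale (100 = complete control) against untreated plants 13 to 15 days after treatment in the greenhouse. Compounds went into paddy water of pots flooded to 3 cm, holding 2-leaf-stage plants.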

[10] = tested on: ducksalad (Heteranthera limosa); test: Test C flooded paddy test plant response; settings: Flood, 250 g ai/ha; scale of 0 to 100 where 0 is no effect and 100 is complete control; 13 to 15 days
Method in brief: as §3

[11] = tested on: barnyardgrass (Echinochloa crus-galli); test: Test C flooded paddy test plant response; settings: Flood, 250 g ai/ha; scale of 0 to 100 where 0 is no effect and 100 is complete control; 13 to 15 days
Method in brief: as §3

rice (Oryza sativa) = test: Test C flooded paddy test plant response; settings: Flood, 250 g ai/ha; scale of 0 to 100 where 0 is no effect and 100 is complete control; 13 to 15 days
Method in brief: as §3

[12] = 31 g ai/ha, Postemergence, 0 to 100 scale, 0 no effect, 100 complete control
[13] = 125 g ai/ha, postemergence, 0 to 100 scale, 0 no effect, 100 complete control
[14] = Preemergence, 31 g ai/ha, 0 to 100 scale (0 no effect, 100 complete control)
[15] = Preemergence, 125 g ai/ha, 0 to 100 scale where 0 is no effect and 100 is complete control
[16] = 31 g ai/ha, Preemergence, 0 to 100 scale where 0 is no effect and 100 is complete control

Structure (SMILES) | Plant response rating, Ryegrass, Italian [1, 12] | Plant response rating, Ryegrass, Italian [1, 13] | Plant response rating, Pigweed [2, 12] | Plant response rating, Pigweed [2, 13] | Plant response rating, Foxtail, Giant [3, 12] | Plant response rating, Foxtail, Giant [3, 13] | Plant response rating, Foxtail, Giant [3, 15] | Plant response rating, Ragweed [4, 12] | Plant response rating, Ragweed [4, 13] | Plant response rating, Barnyardgrass [5, 12] | Plant response rating, Barnyardgrass [5, 13] | Plant response rating, Barnyardgrass [5, 15] | Plant response rating, Kochia (kochia (Kochia scoparia); [12]) | Plant response rating, Kochia (kochia (Kochia scoparia); [13]) | Plant response rating, Kochia (kochia (Kochia scoparia); [15]) | Plant response rating, Wheat ([6]; 31 g ai/ha, Postemergence) | Plant response rating, Wheat ([6]; 125 g ai/ha, postemergence) | Plant response rating, Corn (corn (Zea mays); 31 g ai/ha, Postemergence) | Plant response rating, Corn (corn (Zea mays); 125 g ai/ha, postemergence) | Plant response rating, Galium ([7]; 31 g ai/ha, Postemergence) | also measured
Fc1cc(F)c(-c2cc(C(F)F)no2)c(Oc2ncc(Cl)cn2)c1 [Compound 107] | 0 | 0 | 0 | 0 | 0 | 0 | 0 | 0 | 0 | 0 | 0 | 0 | 0 | 0 | 0 | 0 | 0 | 0 | 0 | 0 | Ryegrass, Italian plant response rating [1, 14]: 0; Plant response rating, Ryegrass, Italian [1, 15]: 0; Pigweed plant response rating [2, 14]: 0; Plant response rating, Pigweed [2, 15]: 0; Foxtail, Giant plant response rating [3, 14]: 0; Ragweed plant response rating [4, 14]: 0; Plant response rating, Ragweed [4, 15]: 0; Barnyardgrass plant response rating [5, 14]: 0; Kochia plant response rating (kochia (Kochia scoparia); [14]): 0; Plant response rating, Galium ([7]; 125 g ai/ha, postemergence): 0; Plant response rating, Blackgrass ([8]; 31 g ai/ha, Postemergence): 0; Plant response rating, Blackgrass ([8]; 125 g ai/ha, postemergence): 0; Sedge, Umbrella plant response rating [9]: 0; Ducksalad plant response rating [10]: 0; Barnyardgrass plant response rating [11]: 0; Rice plant response rating (rice (Oryza sativa)): 0
CCOC(OCC)c1cc(-c2ccccc2Oc2ncc(Cl)cn2)on1 [Compound 108] | 0 | 0 | 0 | 0 | 0 | 0 | 0 | 0 | 0 | 0 | 0 | 0 | 0 | 0 | 0 | 0 | 0 | 0 | 10 | 30 | Plant response rating, Ryegrass, Italian [1, 16]: 0; Plant response rating, Ryegrass, Italian [1, 15]: 0; Plant response rating, Pigweed [2, 16]: 0; Plant response rating, Pigweed [2, 15]: 0; Plant response rating, Foxtail, Giant [3, 16]: 0; Plant response rating, Ragweed [4, 16]: 0; Plant response rating, Ragweed [4, 15]: 0; Plant response rating, Barnyardgrass [5, 16]: 0; Plant response rating, Kochia (kochia (Kochia scoparia); [16]): 0; Plant response rating, Galium ([7]; 125 g ai/ha, postemergence): 50; Plant response rating, Blackgrass ([8]; 31 g ai/ha, Postemergence): 0; Plant response rating, Blackgrass ([8]; 125 g ai/ha, postemergence): 0; Sedge, Umbrella plant response rating [9]: 0; Ducksalad plant response rating [10]: 0; Barnyardgrass plant response rating [11]: 0; Rice plant response rating (rice (Oryza sativa)): 0
COc1cccc(Oc2ncc(Cl)cn2)c1-c1cc(C(F)F)on1 [Compound 109] | 10 | 50 | 80 | 100 | 60 | 90 | 100 | 60 | 90 | 60 | 90 | 100 | 0 | 30 | 30 | 0 | 10 | 10 | 60 | 50 | Plant response rating, Ryegrass, Italian [1, 16]: 0; Plant response rating, Ryegrass, Italian [1, 15]: 10; Plant response rating, Pigweed [2, 16]: 90; Plant response rating, Pigweed [2, 15]: 100; Plant response rating, Foxtail, Giant [3, 16]: 80; Plant response rating, Ragweed [4, 16]: 20; Plant response rating, Ragweed [4, 15]: 70; Plant response rating, Barnyardgrass [5, 16]: 40; Plant response rating, Kochia (kochia (Kochia scoparia); [16]): 0; Plant response rating, Galium ([7]; 125 g ai/ha, postemergence): 100; Plant response rating, Blackgrass ([8]; 31 g ai/ha, Postemergence): 50; Plant response rating, Blackgrass ([8]; 125 g ai/ha, postemergence): 90; Sedge, Umbrella plant response rating [9]: 80; Ducksalad plant response rating [10]: 85; Barnyardgrass plant response rating [11]: 30; Rice plant response rating (rice (Oryza sativa)): 35
COc1cccc(Oc2ncc(Cl)cn2)c1-c1cc(C)no1 [Compound 110] | 0 | 0 | 10 | 30 | 0 | 70 | 70 | 30 | 40 | 0 | 50 | 40 | 10 | 50 | 0 | 0 | 0 | 0 | 10 | 20 | Plant response rating, Ryegrass, Italian [1, 16]: 0; Plant response rating, Pigweed [2, 16]: 10; Plant response rating, Foxtail, Giant [3, 16]: 0; Plant response rating, Ragweed [4, 16]: 0; Plant response rating, Barnyardgrass [5, 16]: 0; Plant response rating, Kochia (kochia (Kochia scoparia); [16]): 0; Plant response rating, Galium ([7]; 125 g ai/ha, postemergence): 70; Plant response rating, Blackgrass ([8]; 31 g ai/ha, Postemergence): 0; Plant response rating, Blackgrass ([8]; 125 g ai/ha, postemergence): 40; Sedge, Umbrella plant response rating [9]: 60; Ducksalad plant response rating [10]: 30; Barnyardgrass plant response rating [11]: 0; Rice plant response rating (rice (Oryza sativa)): 0
COc1cccc(Oc2ncc(F)cn2)c1-c1cc(C)no1 [Compound 111] | 0 | 0 | 0 | 20 | 0 | 60 | 50 | 10 | 20 | 0 | 10 | 20 | 20 | 30 | 10 | 0 | 0 | 0 | 10 | 10 | Plant response rating, Ryegrass, Italian [1, 16]: 0; Plant response rating, Pigweed [2, 16]: 10; Plant response rating, Foxtail, Giant [3, 16]: 0; Plant response rating, Ragweed [4, 16]: 0; Plant response rating, Barnyardgrass [5, 16]: 0; Plant response rating, Kochia (kochia (Kochia scoparia); [16]): 0; Plant response rating, Galium ([7]; 125 g ai/ha, postemergence): 20; Plant response rating, Blackgrass ([8]; 31 g ai/ha, Postemergence): 0; Plant response rating, Blackgrass ([8]; 125 g ai/ha, postemergence): 40; Sedge, Umbrella plant response rating [9]: 0; Ducksalad plant response rating [10]: 0; Barnyardgrass plant response rating [11]: 0; Rice plant response rating (rice (Oryza sativa)): 0
